≈ marks a conversion by molar mass, not a printed value.
Assays:
[1] = test system: Streptococcus pneumoniae; assay: Antimicrobial activity against Streptococcus pneumoniae D39; assay type: functional
[2] = Plasma clearance in rat at 3 mg/kg, iv; assay type: ADME, organism-based; design: dose 3 mg/kg, route intravenous
[3] = Renal clearance in iv dosed rat; assay type: ADME, organism-based, Kidney; conditions: in vivo
[4] = Lipophilicity, log D of the compound; conditions: octanol/water
[5] = test system: Streptococcus pneumoniae; assay: Antibacterial activity against Streptococcus pneumoniae; assay type: functional
[6] = Total clearance in iv dosed rat; assay type: ADME, organism-based; conditions: in vivo
[7] = Oral bioavailability in dog; assay type: ADME, organism-based, Canis lupus familiaris; conditions: in vivo
[8] = test system: Rattus norvegicus; assay: Hepatic blood flow in iv dosed rat; assay type: ADME, organism-based, Liver; conditions: in vivo
[9] = Clearance in iv dosed dog; assay type: ADME, organism-based, Canis lupus familiaris; conditions: in vivo
[10] = Fraction unbound in human plasma; assay type: ADME, cell-free
[11] = Solubility of the compound; assay type: physicochemical
[12] = test system: Canis familiaris; assay: Hepatic blood flow in iv dosed dog; assay type: ADME, organism-based, Canis lupus familiaris, Liver; conditions: in vivo
[13] = Oral bioavailability in rat; assay type: ADME, organism-based; conditions: in vivo

| SMILES | MIC [1] | clearance [2] | CL renal [3] | logD [4] | MIC [5] | clearance [6] | further results |
| --- | --- | --- | --- | --- | --- | --- | --- |
| Nc1nc(OC2CCCC2)nc2c1ncn2[C@@H]1O[C@H](CF)[C@@H](O)[C@H]1O | 4 µg/mL (≈ 11.3 µM) | 83 mL/min/kg |  |  |  |  |  |
| C[C@H]1O[C@@H](n2cnc3c(N)nc(OC4CCCC4)nc32)[C@H](O)[C@@H]1O | 2 µg/mL (≈ 5.96 µM) | 43 mL/min/kg |  |  |  |  |  |
| Nc1nc(OCC2CCC2)nc2c1ncn2[C@@H]1O[C@H](CF)[C@@H](O)[C@H]1O | 2 µg/mL (≈ 5.66 µM) | 73 mL/min/kg |  |  |  |  |  |
| C[C@H]1O[C@@H](n2cnc3c(N)nc(O[C@H]4CC[C@H](C)CC4)nc32)[C@H](O)[C@@H]1O | 1 µg/mL (≈ 2.75 µM) | 89 mL/min/kg |  |  |  |  |  |
| C[C@H]1O[C@@H](n2cnc3c(N)nc(OCC4CC45CC5)nc32)[C@H](O)[C@@H]1O (some centres not stated) | 1 µg/mL (≈ 2.88 µM) | 96 mL/min/kg |  |  |  |  |  |
| C[C@H]1O[C@@H](n2cnc3c(N)nc(OC4C[C@@H]5C[C@@H]5C4)nc32)[C@H](O)[C@@H]1O (some centres not stated) | 2 µg/mL (≈ 5.76 µM) | 50 mL/min/kg |  |  |  |  |  |
| C[C@H]1O[C@@H](n2cnc3c(N)nc(OC4CCOC4)nc32)[C@H](O)[C@@H]1O (some centres not stated) |  |  | 13 mL/min/kg | -0.06 | 16 µg/mL (≈ 47.4 µM) | 67 mL/min/kg |  |
| Nc1nc(OCC2CC2)nc2c1ncn2[C@@H]1O[C@H](CF)[C@@H](O)[C@H]1O |  |  | 13 mL/min/kg |  | 8 µg/mL (≈ 23.6 µM) | 49 mL/min/kg |  |
| CC1CC1COc1nc(N)c2ncn([C@@H]3O[C@H](CF)[C@@H](O)[C@H]3O)c2n1 (some centres not stated) |  |  | 11 mL/min/kg |  | 4 µg/mL (≈ 11.3 µM) | 115 mL/min/kg |  |
| C[C@H]1O[C@@H](n2cnc3c(N)nc(O[C@H]4CC[C@H](C(F)(F)F)CC4)nc32)[C@H](O)[C@@H]1O |  |  | 2 mL/min/kg | 2.2 | 2 µg/mL (≈ 4.79 µM) | 27 mL/min/kg | bioavailability [7]: 88%; QH [8]: 39%; clearance [9]: 7.7 mL/min/kg; fraction unbound [10]: 0.2; solubility [11]: 800 µM (≈ 334 µg/mL); QH [12]: 20%; bioavailability [13]: 86% |
| C[C@H]1O[C@@H](n2cnc3c(N)nc(OC4CCC(F)(F)CC4)nc32)[C@H](O)[C@@H]1O |  |  | 15 mL/min/kg |  | 8 µg/mL (≈ 20.8 µM) | 33 mL/min/kg |  |
| C[C@H]1O[C@@H](n2cnc3c(N)nc(OC(C4CC4)C(F)(F)F)nc32)[C@H](O)[C@@H]1O (some centres not stated) |  |  | 5 mL/min/kg | 1.8 | 8 µg/mL (≈ 20.5 µM) | 73 mL/min/kg |  |
| C[C@H]1O[C@@H](n2cnc3c(N)nc(OCC4CC(F)(F)C4(F)F)nc32)[C@H](O)[C@@H]1O (some centres not stated) |  |  | 17 mL/min/kg | 1.4 | 4 µg/mL (≈ 9.82 µM) | 85 mL/min/kg |  |
| C[C@H]1O[C@@H](n2cnc3c(N)nc(OC4CC(F)(F)C4(F)F)nc32)[C@H](O)[C@@H]1O (some centres not stated) |  |  | 16 mL/min/kg | 1.3 | 16 µg/mL (≈ 40.7 µM) | 23 mL/min/kg |  |
| C[C@H]1O[C@@H](n2cnc3c(N)nc(OCC4CCC(F)(F)CC4)nc32)[C@H](O)[C@@H]1O |  |  | 8 mL/min/kg | 1.7 | 16 µg/mL (≈ 40.1 µM) | 58 mL/min/kg |  |
